According to the supplement of paper PMC10307832:

Assays:
Test in all cases: relative viability (nuclei count vs DMSO), 5 days (fraction); higher = more cells survive
[1] = compound: C[C@@H](C(=O)N[C@@H](C1CCCCC1)C(=O)N2CCC[C@H]2C(=O)N[C@@H]3[C@@H](CC4=CC=CC=C34)OCC#CC#CCO[C@@H]5CC6=CC=CC=C6[C@@H]5NC(=O)[C@@H]7CCCN7C(=O)[C@H](C8CCCCC8)NC(=O)[C@H](C)NC)NC [AZD5582] + CCNC(=O)c1noc(-c2cc(C(C)C)c(O)cc2O)c1-c1ccc(CN2CCOCC2)cc1 [Luminespib] (partner 0.01 µM)
Procedure, shortened: (§1)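 Medians of duplicate plates are given as relative viability. That measure is the nuclei count in treated wells divided by the count in vehicle wells. Counts were taken on 4× images of lung cancer cell lines in 1536-well plates, 5 days after pin-tool dosing the day after seeding with one drug alone or a fixed anchor-drug dose plus five library-drug doses (not always all listed) in √10 steps.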

[2] = compound: C[C@@H](C(=O)N[C@@H](C1CCCCC1)C(=O)N2CCC[C@H]2C(=O)N[C@@H]3[C@@H](CC4=CC=CC=C34)OCC#CC#CCO[C@@H]5CC6=CC=CC=C6[C@@H]5NC(=O)[C@@H]7CCCN7C(=O)[C@H](C8CCCCC8)NC(=O)[C@H](C)NC)NC [AZD5582] + CC(=O)c1c(C)c2cnc(Nc3ccc(N4CCNCC4)cn3)nc2n(C2CCCC2)c1=O [Palbociclib] (partner 0.5 µM)
Procedure, shortened: as §1

[3] = compound: Cn1nnc2c(C(N)=O)ncn2c1=O [Temozolomide] + CC(=O)c1c(C)c2cnc(Nc3ccc(N4CCNCC4)cn3)nc2n(C2CCCC2)c1=O [Palbociclib] (partner 0.5 µM)
Procedure, shortened: as §1

[4] = compound: C[C@@H](C(=O)N[C@@H](C1CCCCC1)C(=O)N2CCC[C@H]2C(=O)N[C@@H]3[C@@H](CC4=CC=CC=C34)OCC#CC#CCO[C@@H]5CC6=CC=CC=C6[C@@H]5NC(=O)[C@@H]7CCCN7C(=O)[C@H](C8CCCCC8)NC(=O)[C@H](C)NC)NC [AZD5582] + NC(=O)Nc1cc(-c2cccc(F)c2)sc1C(=O)N[C@H]1CCCNC1 [AZD7762] (partner 0.2 µM)
Procedure, shortened: as §1

| Cell Line | relative viability ([1]; first compound 0.001581 µM) | relative viability ([1]; first compound 0.005 µM) | relative viability ([1]; first compound 0.01581 µM) | relative viability ([1]; first compound 0.05 µM) | relative viability ([2]; first compound 0.001581 µM) | relative viability ([2]; first compound 0.005 µM) | relative viability ([2]; first compound 0.01581 µM) | relative viability ([2]; first compound 0.05 µM) | relative viability ([3]; first compound 0.2 µM) | relative viability ([3]; first compound 0.6325 µM) | relative viability ([3]; first compound 2 µM) | relative viability ([3]; first compound 6.325 µM) | relative viability ([3]; first compound 20 µM) | relative viability ([4]; first compound 0.001581 µM) | relative viability ([4]; first compound 0.005 µM) | relative viability ([4]; first compound 0.01581 µM) | relative viability ([4]; first compound 0.05 µM) |
| --- | --- | --- | --- | --- | --- | --- | --- | --- | --- | --- | --- | --- | --- | --- | --- | --- | --- |
| ChaGo-K-1 | 0.518 | 0.691 | 0.518 | 0.633 | 0.882 | 0.943 | 0.921 | 1.01 | 1.05 | 0.967 | 0.967 | 0.873 | 0.917 | 0.794 | 0.874 | 0.816 | 0.837 |
| EKVX | 0.859 | 0.972 | 0.787 | 0.803 | 0.378 | 0.425 | 0.298 | 0.393 | – | 0.322 | 0.292 | 0.323 | 0.223 | 0.603 | 0.661 | 0.565 | 0.595 |
| EMC-BAC-2 | 1.06 | 0.922 | 1.19 | 0.721 | 0.472 | 0.527 | 0.503 | 0.513 | 0.563 | 0.534 | 0.542 | 0.511 | 0.514 | 1.07 | 1.06 | 0.996 | 1.04 |
| EPLC-272H | 0.24 | – | 0.205 | 0.381 | 0.165 | – | 0.32 | 0.127 | 0.319 | 0.337 | 0.356 | 0.321 | 0.299 | 0.0994 | – | 0.204 | 0.0859 |
| H3255 | 0.731 | 0.956 | 0.653 | 0.824 | 0.29 | 0.306 | 0.302 | 0.318 | – | 0.315 | 0.302 | 0.312 | 0.297 | 0.805 | 0.779 | 0.842 | 0.773 |
| HARA | 0.39 | 0.727 | 0.733 | 1.21 | 0.257 | 0.275 | 0.233 | 0.318 | – | 0.307 | 0.303 | 0.302 | 0.233 | 0.204 | 0.261 | 0.315 | 0.225 |
| HCC-15 | 0.264 | 0.323 | 0.278 | 0.301 | 0.501 | 0.582 | 0.615 | 0.309 | 0.778 | 0.717 | 0.805 | 0.691 | 0.706 | 1.06 | 1.05 | 1.2 | 0.615 |
| HCC-44 | 0.921 | 1.12 | 0.96 | 1.2 | 0.906 | 0.931 | 1.02 | 0.928 | 0.984 | 0.943 | 0.921 | 0.988 | 0.981 | 0.9 | 1.01 | 1.05 | 1.03 |
| HCC-827 | 0.61 | 0.755 | 0.664 | 0.743 | 0.481 | 0.47 | 0.492 | 0.529 | 0.461 | 0.449 | 0.513 | 0.517 | 0.148 | 0.192 | 0.139 | 0.211 | 0.186 |
| HOP-62 | 0.837 | 0.85 | 0.987 | 1.07 | 0.297 | 0.46 | 0.453 | 0.379 | 0.545 | 0.488 | 0.473 | 0.375 | 0.447 | 0.29 | 0.395 | 0.722 | 0.508 |
| LC-2-ad | 1.1 | 1.03 | 0.942 | 0.901 | 0.465 | 0.535 | 0.46 | 0.543 | 0.474 | 0.494 | 0.512 | 0.537 | 0.473 | 0.821 | 1.04 | 0.801 | 0.929 |
| LCLC-97TM1 | 0.766 | 0.794 | 0.785 | 0.857 | 0.172 | 0.282 | 0.24 | 0.165 | 0.272 | 0.237 | 0.197 | 0.231 | 0.191 | 0.193 | 0.221 | 0.225 | 0.154 |
| LCLC-103H | 0.877 | 0.943 | 0.896 | 0.886 | 0.47 | 0.469 | 0.432 | 0.377 | 0.503 | 0.514 | 0.496 | 0.608 | 0.413 | 0.745 | 0.725 | 0.613 | 0.41 |
| LK-2 | 0.178 | 0.202 | 0.191 | 0.171 | 0.553 | 0.738 | – | 0.75 | 0.599 | 0.719 | 0.601 | 0.327 | 0.2 | 0.249 | 0.537 | – | 0.338 |
| LOU-NH91 | 0.391 | 0.321 | 0.33 | 0.342 | 0.529 | 0.54 | 0.487 | 0.532 | 0.585 | 0.566 | 0.552 | 0.557 | 0.572 | 0.715 | 0.833 | 0.704 | 0.742 |
| LU99A | 0.215 | 0.227 | 0.271 | 0.266 | 0.455 | 0.465 | 0.412 | 0.534 | 0.447 | 0.42 | 0.472 | 0.387 | 0.388 | 0.317 | 0.349 | 0.313 | 0.337 |
| LXF-289 | 0.76 | 0.561 | 0.627 | 0.749 | 0.575 | 0.585 | 0.577 | 0.598 | 0.616 | 0.626 | 0.606 | 0.579 | 0.564 | 1.01 | 1.09 | 0.963 | 1.12 |
| NCI-H23 | 0.212 | 0.207 | – | 0.276 | 0.393 | 0.374 | 0.419 | 0.305 | 0.59 | 0.55 | 0.504 | 0.403 | 0.433 | 0.163 | 0.172 | 0.177 | 0.227 |
